This note sets out measurements from patent US20050107606A1 (published 2005).

What is called melting point is the temperature of the solid-liquid transition. `CCCn1cncc1CSc1ccc(NC(=O)C(F)(F)F)cc1` yielded a melting point of 82 to 84 °C.
